Measurements taken from patent US9034914B2, “Pharmaceutical composition comprising rotigotine salts (acid or Na), especially for iontophoresis” (UCB Pharma GmbH, priority 2009, dated 2015).
Read-outs that look alike come from different tables or passages of the source.

Assay type: in vitro ADME, human
Details: for steady state flux ± s.d., iontophoresis stage / Mean steady state flux ± sd: 9 h
Procedure: The preparation of human stratum corneum (HSC) was performed according to the method described previously (Nugroho et al., (Nugroho et al., J. Control Release (2005) 103, 393-403) which is incorporated herein by reference. Briefly, within 24 hours after surgical removal of the human skin residual subcutaneous fat was removed. Dermatomed human skin (DHS) was obtained by dermatoming the skin to a thickness of about 300 μm. In order to obtain HSC, DHS was incubated with the dermal side on Whatman paper soaked in a solution of 0.1% trypsin in 150 mM phosphate buffered saline (PBS) pH 7.4 (NaCl: 8 g·L^−1, Na2HPO4: 2.86 g·L^−1, KH2PO4: 0.2 g·L^−1, KCl: 0.19 g·L^−1) overnight at 4° C. and subsequently for 1 hour at 37° C. after which HSC was peeled off from the underlying viable epidermis and dermis. HSC was subsequently washed in a 0.1% trypsin inhibitor solution in Millipore water and several times in water and stored in a desiccator in a N2 environment.
The in vitro transport studies were done by using a 9-channel computer controlled power supply in order to provide a constant direct current (Electronics Department, Gorlaeus Laboratories, Leiden University, The Netherlands) during iontophoresis. The system was equipped with differential input channels per current source enabling on-line measurement of the electric resistance across HSC in each diffusion cell. Ag/AgCl was used as driver electrode pair. All transport experiments were carried out, using a three chamber continuous flow through cell as described elsewhere (Nugroho et al., J. Control Release (2005) 103, 393-403). The donor formulation, buffered with a 10 mM citric buffer, was applied at the anodal side. The cathodal chamber was filled with PBS pH 7.4. The acceptor phase, maintained at 32° C., was continuously perfused with PBS pH 6.2 (NaCl: 8 g·L^−1, KCl: 0.19 g·L^−1, Na2HPO4.2H2O: 0.43 g·L^−1, KH2PO4: 0.97 g·L^−1) at a flow rate of 7.0 ml·h^−1. Unless described elsewhere, the following protocol for the iontophoresis experiments was used: 6 hours of passive diffusion, followed by 9 hours of iontophoresis with a current density of 500 μA·cm^−2 and 5 hours of passive diffusion. Samples were collected every hour with an automatic fraction collector (ISCORetriever IV, Beun De Ronde B V, Abcoude, The Netherlands). The specific conditions of the individual transport studies are described below.
Prior to and at the end of a transport study the pH of donor and acceptor compartment was measured. All samples of the iontophoretic transport studies were analyzed by RP-HPLC using a Superspher® 60 RP-select B, 75 mm-4 mm column (Merck KGaA, Darmstadt, Germany). Rotigotine was detected using a scanning fluorescence detector (Waters™ 474, Millipore, Milford, Mass., USA) at excitation and emission wavelengths of 276 and 302 nm. Acetaminophen was detected using a UV detector (Dual λ Absorbance Detector 2487, Waters, Milford, USA) at a wavelength of 254 nm. Filtered and degassed mobile phase contained 60% H2O (v/v), 40% ACN (v/v) and 0.05% methanesulfonic acid (v/v). The injection volume was 50 μL and the flow rate was set to 1.0 mL·min^−1.
To calculate the steady state flux during passive and iontophoretic transport, the cumulative flux of the transport was plotted as a function of time. The steady state flux was estimated from the linear part of the slope of this plot according to the permeation lag-time method^7. All data are presented as mean±standard deviation (s.d.). When a statistical analysis was performed comparing only 2 groups, a Students t-test was used. When 3 or more groups were compared, a 1-way ANOVA statistical analysis was executed. If the overall p-value was less than 0.05, a bonferonni post-test was applied to compare different groups. For all statistical analysis a significance level of p<0.05 was used. […]

CCCN(CCc1cccs1)[C@H]1CCc2c(O)cccc2C1.O=P(O)(O)O [rotigotine.H3PO4, rotigotine dihydrogen phosphate]
time to reach steady state flux after current application (citric buffer pH 5, FIG. 3): within four hours | steady state flux ± s.d., passive stage (human, 6 h, 1.24 mg/ml, pH 6): 4.1 ± 1.9 μg/cm^2/h | steady state flux ± s.d., passive stage (human, 6 h, 1.28 mg/ml, pH 5): 0.5 ± 0.2 μg/cm^2/h | steady state flux ± s.d., passive stage (human, 6 h, 1.42 mg/ml, pH 6): 3.2 ± 0.2 μg/cm^2/h | steady state flux ± s.d., passive stage (human, 6 h, 1.46 mg/ml, pH 5): 0.9 ± 0.3 μg/cm^2/h | steady state flux ± s.d., passive stage (human, 6 h, 3.11 mg/ml, pH 5): 1.0 ± 0.1 μg/cm^2/h | steady state flux ± s.d., passive stage (human, 6 h, 4.13 mg/ml, pH 6): 9.3 ± 0.9 μg/cm^2/h | steady state flux ± s.d., passive stage (human, 6 h, 4.3 mg/ml, pH 6): 12.3 ± 0.9 μg/cm^2/h | steady state flux ± s.d., passive stage (human, 6 h, 6.95 mg/ml, pH 5): 2.3 ± 0.5 μg/cm^2/h | steady state flux ± s.d., passive stage (human, 6 h, 9.88 mg/ml, pH 5.5): 7.7 ± 0.5 μg/cm^2/h | steady state flux ± s.d., passive stage (human, 6 h, 15.09 mg/ml, pH 5): 3.6 ± 0.5 μg/cm^2/h | Flux (human, 6 h, 31.3 mM, pH 5.5): 24.4±1.9 nmol·cm^−2·h^−1 | maximum passive flux close to saturation in the donor phase (human, 6 h, pH 5): 10.8±1.9 nmol·cm^−2·h^−1 | maximum passive flux close to saturation in the donor phase (human, 6 h, pH 6): 24.9 nmol·cm^−2·h^−1 | steady state flux ± s.d., iontophoresis stage (human, 1.24 mg/ml, pH 6): 26.4 ± 1.3 μg/cm^2/h | steady state flux ± s.d., iontophoresis stage (human, 1.28 mg/ml, pH 5): 20.0 ± 4.9 μg/cm^2/h | Mean steady state flux ± sd (human, 1.4 mg/ml, pH 5): 22.1 ± 2.5 μg/cm^2/h | steady state flux ± s.d., iontophoresis stage (human, 1.42 mg/ml, pH 6): 25.1 ± 3.3 μg/cm^2/h | steady state flux ± s.d., iontophoresis stage (human, 1.46 mg/ml, pH 5): 22.1 ± 2.5 μg/cm^2/h | Mean steady state flux ± sd (human, 3 mg/ml, pH 5): 26.0 ± 2.1 μg/cm^2/h | steady state flux ± s.d., iontophoresis stage (human, 3.11 mg/ml, pH 5): 26.0 ± 2.1 μg/cm^2/h | steady state flux ± s.d., iontophoresis stage (human, 4.13 mg/ml, pH 6): 43.0 ± 2.6 μg/cm^2/h | steady state flux ± s.d., iontophoresis stage (human, 4.3 mg/ml, pH 6): 47.1 ± 1.8 μg/cm^2/h | steady state flux ± s.d., iontophoresis stage (human, 6.95 mg/ml, pH 5): 33.7 ± 4.7 μg/cm^2/h | steady state flux ± s.d., iontophoresis stage (human, 9.88 mg/ml, pH 5.5): 47.9 ± 3.1 μg/cm^2/h | steady state flux ± s.d., iontophoresis stage (human, 15.09 mg/ml, pH 5): 41.5 ± 3.4 μg/cm^2/h | decrease in steady state flux resulting from the decrease in donor concentration (human, 24 h, pH 5): 10% | increase in maximum flux compared to rotigotine.HCl (human, pH 5): 170% | maximum iontophoretic flux (human, pH 5): 135.8±12.5 nmol·cm^−2·h^−1 | time to reach steady state of passive transport (no current, prior to iontophoresis): ≤ 6 h | time to reach steady state flux after current application (pH 5.5, 31.3 mM, 68 mM NaCl, stepwise increase of current density): ≤ 6 h
